Usually EC50 stands for the concentration at which the effect is half-maximal.

The target in the assay is T1, human Farnesoid X Receptor (FXR) ligand binding domain (GST-FXR LBD) (Homo sapiens, UniProt Q96RI1).
T1 construct: purchased Invitrogen
T1 sequence (Q96RI1 193-472 isoform Q96RI1-2): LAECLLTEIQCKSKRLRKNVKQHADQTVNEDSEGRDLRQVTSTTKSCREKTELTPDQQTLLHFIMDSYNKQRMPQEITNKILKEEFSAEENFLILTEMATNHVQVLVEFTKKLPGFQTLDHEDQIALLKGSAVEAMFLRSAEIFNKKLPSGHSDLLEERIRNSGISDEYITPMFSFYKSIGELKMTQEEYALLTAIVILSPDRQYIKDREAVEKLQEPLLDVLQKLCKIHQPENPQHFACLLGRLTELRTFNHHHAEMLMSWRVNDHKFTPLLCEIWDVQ
Kind of assay: Human GST-FXR LBD co-activator interaction assay (HTRF). As to conditions: GST-FXR LBD / biotin-SRC-1 peptide FRET; response relative to GW4064; read-out: FXR Co-activator interaction assay (EC50). The assay is classed as biochemical. The text has this: Human GST-FXR LBD Co-activator interaction Assay. The FXR HTRF assay is a biochemical assay measuring the interaction between FXR and a coactivator protein (SRC1). The ligand-induced interaction with a coactivator protein is a critical step in transcriptional activation by FXR. Thus, this is an assay designed to measure FXR agonist activity of compounds.
The ligand-dependent interaction between GST-FXR LBD and a peptide derived from Steroid Receptor Coactivator-1 (SRC-1) was monitored by Fluorescence Resonance Energy Transfer (FRET). […] Test compounds (in DMSO solution) and detection reagents (anti-GST-Cryptate labeled antibody and Streptavidin-XL665 conjugate; CisBio) were added in assay buffer containing 50 mM KF.
A negative control (without Streptavidin-XL665) was run with each assay and represented the background fluorescence. A reference FXR agonist, GW4064, was included in each experiment as positive control. The efficacy of each test compound was compared to that of GW4064. At each concentration, the relative activity of the test compound was expressed as Response %=(Rsample−RDMSO)/(Rpositive−RDMSO), where Rsample is the HTRF response (expressed in Delta F %) for the test compound, Rpositive is the maximal response for GW4064 at saturating concentrations, and RDMSO is the response for DMSO control. The EC50 values were calculated using GraphPad Prism (GraphPad Software) using non-linear regression curve fit (log(agonist) vs. response—variable slope (four parameters)).
Background: TR-FRET usually uses a lanthanide donor and a delayed reading to cut background.
As to `COc1cc(C(=O)O)cc2sc(N3C4CC[C@H]3C[C@H](OCc3c(-c5c(F)cccc5F)noc3C3CC3)C4)nc12` [Example 6-6B], the EC50 turned out to be 0.3 nM.
The value for `COC(=O)c1cc(F)c2nc(N3C4CC[C@H]3C[C@H](OCc3c(-c5c(F)cccc5F)noc3C3CC3)C4)sc2c1` [Example 6-7A] was 14 nM; that for `O=C(O)c1cc(F)c2nc(N3C4CC[C@H]3C[C@H](OCc3c(-c5c(F)cccc5F)noc3C3CC3)C4)sc2c1` [Example 6-7B] was 0.58 nM.
The value for `O=C(O)c1cc(F)c2nc(N3C4CC[C@H]3C[C@H](OCc3c(C5CCCCC5C(F)(F)F)noc3C3CC3)C4)sc2c1` (some centres unmarked) [Example 8-1] was 4 nM; that for `COc1cc(C(=O)O)cc2sc(N3C4CC[C@H]3C[C@H](OCc3c(C5CCCCC5C(F)(F)F)noc3C3CC3)C4)nc12` (some centres unmarked) [Example 8-2] was 2.4 nM.
The figure for `CC1(C)CCC(c2noc(C3CC3)c2CO[C@@H]2CC3CC[C@@H](C2)N3c2nc3ccc(C(=O)O)cc3s2)CC1` [Example 8-3] is 18 nM; for `CC1(C)CCC(c2noc(C3CC3)c2CO[C@@H]2CC3CC[C@@H](C2)N3c2nc3c(F)cc(C(=O)O)cc3s2)CC1` [Example 8-4] it is 8.9 nM; for `O=C(O)c1cnc(N2C3CC[C@H]2C[C@H](OCc2c(C4CCCCC4C(F)(F)F)noc2C2CC2)C3)cn1` (some centres unmarked) [Example 8-5B] it is 110 nM.
Regarding `Cc1cc(C(=O)O)nc(N2C3CC[C@H]2C[C@H](OCc2c(C4CCCCC4C(F)(F)F)noc2C2CC2)C3)n1` (some centres unmarked) [Example 8-6B], the EC50 was 100 nM.
The figure for `Cc1cc(C(=O)O)nc(N2C3CC[C@H]2C[C@H](OCc2c(C4CCCCC4)noc2C2CC2)C3)n1` [Example 8-7B] is 130 nM; for `O=C(O)c1cc(F)c2nc(N3C4CC[C@H]3C[C@H](OCc3c(C5CCCCC5)noc3C3CC3)C4)sc2c1` [Example 9-1] it is 5 nM; for `COc1cc(C(=O)O)cc2sc(N3C4CC[C@H]3C[C@H](OCc3c(C5CCCCC5)noc3C3CC3)C4)nc12` [Example 9-2] it is 11 nM.
Turning to `O=C(O)c1ccc2nc(N3C4CC[C@H]3C[C@H](OCc3c(C5CC5c5ccccc5)noc3C3CC3)C4)sc2c1` (some centres unmarked) [Example 10B, 2-(3-((5-cyclopropyl-3-(2-phenylcyclopropyl)isoxazol-4-yl)methoxy)-8-azabicyclo[3.2.1]octan-8-yl)benzo[d]thiazole-6-carboxylic acid], the EC50 amounted to 98 nM.
The figure for `CC1CC1c1noc(C2CC2)c1CO[C@@H]1CC2CC[C@@H](C1)N2c1nc2c(F)cc(C(=O)O)cc2s1` (some centres unmarked) [Example 12-1] is 25 nM; for `O=C(O)c1cc(F)c2nc(N3C4CC[C@H]3C[C@H](OCc3c(C5CC5)noc3C3CC3)C4)sc2c1` [Example 12-2] it is 40 nM; for `COc1cc(C(=O)O)cc2sc(N3C4CC[C@H]3C[C@H](OCc3c(C5CC5)noc3C3CC3)C4)nc12` [Example 12-3] it is 40 nM.
As to `O=C(O)c1ccc2nc(N3C4CC[C@H]3C[C@H](OCc3c(C5CCC6(CC5)CC6)noc3C3CC3)C4)sc2c1` [Example 13-1B], the EC50 came to 1.3 nM.
As for `O=C(O)c1cc(F)c2nc(N3C4CC[C@H]3C[C@H](OCc3c(C5CCC6(CC5)CC6)noc3C3CC3)C4)sc2c1` [Example 13-2B], the EC50 turned out to be 0.53 nM.
The figure for `COc1cc(C(=O)O)cc2sc(N3C4CC[C@H]3C[C@H](OCc3c(C5CCC6(CC5)CC6)noc3C3CC3)C4)nc12` [Example 13-3B] is 0.67 nM; for `Cc1cc(C(=O)O)nc(N2C3CC[C@H]2C[C@H](OCc2c(C4CCC5(CC4)CC5)noc2C2CC2)C3)n1` [Example 14] it is 35 nM; for `O=C(O)CNC(=O)c1ccc2nc(N3C4CC[C@H]3C[C@H](OCc3c(-c5ccccc5OC(F)(F)F)noc3C3CC3)C4)sc2c1` [Example 15-1B, 2-(2-(3-((5-cyclopropyl-3-(2-(trifluoromethoxy)phenyl)isoxazol-4-yl)methoxy)-8-azabicyclo[3.2.1]octan-8-yl)benzo[d]thiazole-6-carboxamido)acetic acid] it is 0.6 nM.
The value for `O=C(O)CNC(=O)c1cc(F)c2nc(N3C4CC[C@H]3C[C@H](OCc3c(-c5ccccc5OC(F)(F)F)noc3C3CC3)C4)sc2c1` [Example 15-2] was 0.5 nM; that for `O=C(O)CNC(=O)c1ccc(N2C3CC[C@H]2C[C@H](OCc2c(-c4ccccc4OC(F)(F)F)noc2C2CC2)C3)nc1` [Example 15-3] was 17 nM; that for `O=C(O)CNC(=O)c1cc(F)c2nc(N3C4CC[C@H]3C[C@H](OCc3c(-c5ccccc5C(F)(F)F)noc3C3CC3)C4)sc2c1` [Example 15-4] was 0.8 nM.
Consider `O=C(NCCS(=O)(=O)O)c1ccc2nc(N3C4CC[C@H]3C[C@H](OCc3c(-c5ccccc5OC(F)(F)F)noc3C3CC3)C4)sc2c1` [Example 16-1, 2-(2-(3-((5-cyclopropyl-3-(2-(trifluoromethoxy)phenyl)isoxazol-4-yl)methoxy)-8-azabicyclo[3.2.1]octan-8-yl)benzo[d]thiazole-6-carboxamido)ethanesulfonic acid], for which the EC50 came to 0.6 nM.
For the molecule `O=C(NCCS(=O)(=O)O)c1cc(F)c2nc(N3C4CC[C@H]3C[C@H](OCc3c(-c5ccccc5OC(F)(F)F)noc3C3CC3)C4)sc2c1` [Example 16-2], the EC50 was 0.4 nM.
The figure for `O=C(NCCS(=O)(=O)O)c1cc(F)c2nc(N3C4CC[C@H]3C[C@H](OCc3c(-c5ccccc5C(F)(F)F)noc3C3CC3)C4)sc2c1` [Example 16-3] is 1.2 nM.
The value for `O=C(NCCS(=O)(=O)O)c1ccc(N2C3CC[C@H]2C[C@H](OCc2c(-c4ccccc4OC(F)(F)F)noc2C2CC2)C3)nc1` [Example 16-4] was 9 nM; that for `COC(=O)c1cnc(N2C3CC[C@H]2C[C@H](OCc2c(-c4ccccc4OC(F)(F)F)noc2C2CC2)C3)c(Br)c1` [Example 18-1, Methyl 5-bromo-6-((1S,3R)-3-((5-cyclopropyl-3-(2-(trifluoromethoxy)phenyl)isoxazol-4-yl)methoxy)-8-azabicyclo[3.2.1]octan-8-yl)nicotinate] was 9 nM.
The figure for `O=C(O)c1cnc(N2C3CC[C@H]2C[C@H](OCc2c(-c4ccccc4OC(F)(F)F)noc2C2CC2)C3)c(C2CC2)c1` [Example 18-2B, 5-cyclopropyl-6-((1S,3R)-3-((5-cyclopropyl-3-(2-(trifluoromethoxy)phenyl)isoxazol-4-yl)methoxy)-8-azabicyclo[3.2.1]octan-8-yl)nicotinic acid] is 7 nM.
Regarding `COC(=O)c1ccc(N2C3CC[C@H]2C[C@H](OCc2c(-c4ccccc4OC(F)(F)F)noc2C2CC2)C3)nc1` [Example 18-3A], the EC50 turned out to be 8 nM.
Regarding `O=C(O)c1ccc(N2[C@@H]3CC[C@H]2C[C@H](OCc2c(-c4ccccc4OC(F)(F)F)noc2C2CC2)C3)nc1` [Example 18-3B, 6-[(1R,5S)-3-({5-cyclopropyl-3-[2-(trifluoromethoxy)phenyl]-1,2-oxazol-4-yl}methoxy)-8-azabicyclo[3.2.1]octan-8-yl]pyridine-3-carboxylic acid], the concentration giving a half-maximal response (EC50) was found to be 4 nM.
The figure for `COC(=O)c1cnc(N2C3CC[C@H]2C[C@H](OCc2c(-c4ccccc4OC(F)(F)F)noc2C2CC2)C3)nc1` [Example 18-4A] is 20 nM; for `O=C(O)c1cnc(N2C3CC[C@H]2C[C@H](OCc2c(-c4ccccc4OC(F)(F)F)noc2C2CC2)C3)nc1` [Example 18-4B] it is 10 nM; for `COC(=O)c1cnc(N2C3CC[C@H]2C[C@H](OCc2c(-c4ccccc4OC(F)(F)F)noc2C2CC2)C3)cn1` [Example 18-5A] it is 20 nM.
The value for `O=C(O)c1cnc(N2C3CC[C@H]2C[C@H](OCc2c(-c4ccccc4OC(F)(F)F)noc2C2CC2)C3)cn1` [Example 18-5B] was 3 nM; that for `COC(=O)c1ccc(N2C3CC[C@H]2C[C@H](OCc2c(-c4ccccc4C(F)(F)F)noc2C2CC2)C3)nc1` [Example 18-6A] was 50 nM.
The figure for `O=C(O)c1ccc(N2[C@@H]3CC[C@H]2C[C@H](OCc2c(-c4ccccc4C(F)(F)F)noc2C2CC2)C3)nc1` [Example 18-6B, 6-[(1R,5S)-3-({5-cyclopropyl-3-[2-(trifluoromethyl)phenyl]-1,2-oxazol-4-yl}methoxy)-8-azabicyclo[3.2.1]octan-8-yl]pyridine-3-carboxylic acid] is 5 nM; for `COC(=O)c1cc(C)nc(N2C3CC[C@H]2C[C@H](OCc2c(-c4ccccc4OC(F)(F)F)noc2C2CC2)C3)n1` [Example 18-7A] it is 18 nM; for `Cc1cc(C(=O)O)nc(N2C3CC[C@H]2C[C@H](OCc2c(-c4ccccc4OC(F)(F)F)noc2C2CC2)C3)n1` [Example 18-7B] it is 2 nM.
Regarding `COC(=O)Cc1ccc(N2C3CC[C@H]2C[C@H](OCc2c(-c4ccccc4OC(F)(F)F)noc2C2CC2)C3)nc1` [Example 19-1A], the EC50 amounted to 180 nM.

The record behind these values is patent US9150568B2, “Compositions and methods for modulating FXR” (NOVARTIS AG, priority 2010, dated 2015).
